Laboratory results taken from patent publication US20230346769A1, “USE OF SIMPLE ACYCLIC POLYAMINES FOR THE TREATMENT OF DISEASES CAUSED BY PARASITES OF THE GENUS LEISHMANIA” (Universidad De Granada, priority 2020, published 2023).
“Also recorded” adds a separate entry of the source.

Tests used:
[1] = system: FeSOD of promastigote forms of L.donovani; test: In vitro inhibition of FeSOD (NBT reduction); type: biochemical, Leishmania donovani
Method: (§1) Methodology: Compounds that were selected from the leishmanicidal activity shown in previous experiments were evaluated as inhibitors of FeSOD enzyme activity, which is unique to the kinetoplastid parasites to which Leishmania belongs. Being exclusive, it is absent in the vertebrate host, since these usually have an analogous form of that enzyme, but complexed to a copper or zinc atom (Cu/ZnSOD). For this reason, this enzyme is a therapeutic target for the design of new drugs, since the capture of the metal ion by complexing mechanisms can inactivate the enzyme and compromise the survival of the parasite with the appearance of free radicals.
(§2) Inhibition caused by the novel compounds on FeSOD/ Cu-Zn SOD activity was quantified on the spectrophotometer at 560 nm according to the technique described by [W F. Beyer. I. Fridovich. Anal Biochem. 1987. […]
(§3) Briefly, the cultured parasites as described in Example 1 underwent centrifugation, the pellet was resuspended (0.5 - 0.6 g/ml) in 3 ml of STE buffer (0.25 M. Tris-HCI 25 mM sucrose. 1 M EDTA. pH 7.8) and underwent 3 cycles of sonication from 30 s at 60 V. Then, it was centrifuged at 1500 g for 10 min at 4° C. and the pellet was washed 3 times with ice-cooled STE buffer. […] Protein concentrations were determined by means of the Bradford method (Sigma-Aldrich) using bovine serum albumin as standard. […]

L.donovani promastigotes = test: Alteration of production and excretion of metabolites (1H NMR); type: cell-based, Leishmania donovani; settings: compound at IC25, 72 h
Method: (§4) Methodology: Promastigotes from the three species studied were used for this study. They were left to grow in a culture flask and subsequently transferred to a 25 ml capacity conical bottom flask (steriling) so that there were 5×10^4 parasites/ml in each one. The amount of compound needed to reach IC25 of each product was added and completed with fresh culture medium to reach a final volume of 3 ml and incubated at 28° C. for 72 h. After that time, the flasks were centrifuged at 400 g for 10 minutes, and 2 ml of supernatant was transferred to Eppendorf® tubes. Next, they were analysed using proton nuclear resonance and the spectra were analysed with the Mestre Nova® software to obtain the metabolite production and excretion graphs. From these graphs, it can be inferred which enzyme has seen its activity altered by action of the compounds, depending on the increase or decrease of the metabolite produced by it.
(§5) Both the decrease and increase in the metabolites analysed can be positive effects, indicating a malfunctioning of the metabolic pathway.

[2] = system: intracellular forms of L.infantum in J774.2 macrophages; test: Infection rate and parasite growth in infected macrophage cultures; type: cell-based, Leishmania infantum; settings: compound at IC25, 10 days
Method: (§6) Methodology: Macrophages of the J774.2 line preserved in the laboratory of the present inventors by cryopreservation at -80° C. and successive runs in MEM+Glutamine + 20% SBFI medium were used, which were deposited in a […] tube and centrifuged at 100 g for 5 minutes. The supernatant was discarded and the cells were resuspended in medium corresponding to a final concentration of 1×10^6 cells/ml. Subsequently, 10 μl of the cell suspension was deposited into each well of a 24-well culture plate each with a 10 mm diameter round slide. A final volume of 500 μl was completed with the culture medium and incubated for 24 h at 37° C. in humid atmosphere with 5% CO2. […] The non-phagocytic parasites and products were removed by washing and the infected cultures were maintained for 10 days in fresh medium added every 48 hours. The activity of the compounds was determined by the percentage of infected cells and the number of amastigotes per infected cell. Finally, the cultures were fixed and stained with methanol and Giemsa.

[3] = system: intracellular forms of L.donovani in J774.2 macrophages; test: as above; type: cell-based, Leishmania donovani; settings: compound at IC25, 10 days
Method: as §6

[4] = system: FeSOD of the promastigote forms of L.braziliensis; test: In vitro inhibition of FeSOD (NBT reduction); type: biochemical, Leishmania braziliensis
Method: as §1, §2, §3

[5] = system: L.braziliensis promastigotes; test: Alteration of production and excretion of metabolites (1H NMR); type: cell-based, Leishmania braziliensis; settings: compound at IC25, 72 h; for Succinate production: versus control
Method: as §4, §5

[6] = system: intracellular forms of L.braziliensis in J774.2 macrophages; test: Infection rate and parasite growth in infected macrophage cultures; type: cell-based, Leishmania braziliensis; settings: compound at IC25, 10 days
Method: as §6

Leishmania donovani = test: Mitochondrial membrane potential by rhodamine staining and flow cytometry; type: cell-based; settings: L.donovani, compound at IC25, 72 h
Method: Methodology: Similar to the assay of Example 5, an amount of 5×10^4 parasites/ml of Leishmania donovani was re-treated with the IC25 of compounds 2 and 4, this time in a final volume in the 5 ml steriling conical bottom flasks. Again, after 72 h of incubation under the same conditions as described in Example 5, the flasks were centrifuged at 400 g for 10 minutes and the pellet was washed by resuspending with PBS three times. The pellet was resuspended with 0.5 mL of PBS with 10 µg/mL rhodamine after the last wash. A cytometry analysis was performed after 20 minutes of action of the rhodamine.

L.infantum promastigotes = test: Alteration of production and excretion of metabolites (1H NMR); type: cell-based, Leishmania infantum; settings: compound at IC25, 72 h, versus control
Method: as §4, §5

[7] = target: T1, CuZnSOD of human erythrocytes (Homo sapiens, UniProt P00441); test: In vitro inhibition of CuZnSOD (NBT reduction); type: biochemical
T1 construct: the Cu/Zn-superoxide dismutase of human red blood cells from Boehringer Mannheim was used; purchased Boehringer Mannheim; host or cells: human red blood cells (erythrocytes)
T1 sequence (P00441 whole entry): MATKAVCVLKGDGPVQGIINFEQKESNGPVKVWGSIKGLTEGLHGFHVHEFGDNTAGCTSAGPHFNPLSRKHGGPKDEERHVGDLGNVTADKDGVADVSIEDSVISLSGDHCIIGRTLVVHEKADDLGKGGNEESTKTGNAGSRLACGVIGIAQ
Text: To conduct this assay, the Cu/Zn-superoxide dismutase of human red blood cells from Boehringer Mannheim was used, whilst the coenzymes and substrates were obtained from Sigma-Aldrich.
Inhibition caused by the novel compounds on FeSOD/ Cu-Zn SOD activity was quantified on the spectrophotometer at 560 nm according to the technique described by [W F. Beyer. I. Fridovich. Anal Biochem. 1987. 161: 559-66] based on the determination of the reduction of NBT (nitro blue tetrazolium) by superoxide ions and which the group of the present inventors has developed for the assay in trypanosomatides, being a routine technique in the laboratory of said group [F. Luque. et. al. Comp. Biochem. Physiol. C Toxicol. Pharmacol. 2000. […]
Briefly, the cultured parasites as described in Example 1 underwent centrifugation, the pellet was resuspended (0.5 - 0.6 g/ml) in 3 ml of STE buffer (0.25 M. Tris-HCI 25 mM sucrose. 1 M EDTA. pH 7.8) and underwent 3 cycles of sonication from 30 s at 60 V. Then, it was centrifuged at 1500 g for 10 min at 4° C. and the pellet was washed 3 times with ice-cooled STE buffer. […] Protein concentrations were determined by means of the Bradford method (Sigma-Aldrich) using bovine serum albumin as standard. […] A first measurement of the absorbance at 560 nm was made on a spectrophotometer and, after 10 minutes under light and under stirring conditions, the absorbance was re-determined. […]

CNCCNCc1cccnc1 [Compound 2, 1-{3-pyridyl)-2,5-diazahexane]
Concentration for 50% inhibition (IC50) of FeSOD of L.donovani [1]: lower than that necessary for the enzyme of human erythrocytes; also recorded: showed ability to inhibit FeSOD; also recorded: low IC50 value
Production and excretion of metabolites (metabolism, other metabolites analysed) (L.donovani promastigotes): all the metabolites analysed increase
Succinate production (L.donovani promastigotes; versus control): increase in succinate production
Number of amastigotes per infected cell [2]: lowest values over time
Percentage of infection (infection rate) [2]: lowest values over time
Number of amastigotes per infected cell [3]: lowest values over time; also recorded: effective by decreasing
Percentage of infection (infection rate) [3]: lowest values over time; also recorded: effective by decreasing
Concentration for 50% inhibition (IC50) of FeSOD of L.braziliensis [4]: showed ability to inhibit FeSOD
Production and excretion of metabolites (metabolism, other metabolites analysed) [5]: practically does not alter the other metabolites analysed
Succinate production [5]: a certain increase of succinate
Number of amastigotes per infected cell [6]: lowest values over time; also recorded: effective by decreasing
Percentage of infection (infection rate) [6]: lowest values over time; also recorded: effective by decreasing
Effect on mitochondrial membrane potential (Leishmania donovani): only a slight depolarisation

CN(C)CCNCc1cccnc1 [Compound 5, 1-{3-pyridyl}-5-methyl-2,5-diazahexane]
Percentage of infection (infection rate) [2]: lower infection rates than compound 4 until 8 days had elapsed

CN(C)CCNCc1ccccn1 [Compound 4, 1-(2-pyridyl)-5-methyl-2,5-diazahexane]
Concentration for 50% inhibition (IC50) of FeSOD of L.donovani [1]: lower than that necessary for the enzyme of human erythrocytes; also recorded: showed ability to inhibit FeSOD
Succinate production (L.infantum promastigotes): increase in succinate production
Concentration for 50% inhibition (IC50) of CuZnSOD of human erythrocytes [7]: high IC50 value
Number of amastigotes per infected cell [2]: better (lower) than those obtained with compound 5
Percentage of infection (infection rate) [2]: lower infection rate on day 10
Number of amastigotes per infected cell [3]: effective by decreasing
Percentage of infection (infection rate) [3]: effective by decreasing
Concentration for 50% inhibition (IC50) of FeSOD of L.braziliensis [4]: lower than that necessary for the enzyme of human erythrocytes; also recorded: showed ability to inhibit FeSOD
Production and excretion of metabolites (metabolism, other metabolites analysed) [5]: decrease of the remaining metabolites analysed
Succinate production [5]: increase in succinate production
Number of amastigotes per infected cell [6]: effective by decreasing
Percentage of infection (infection rate) [6]: effective by decreasing
Effect on mitochondrial membrane potential (Leishmania donovani): only a slight depolarisation
